Assays:
[1] = tested on: HIV-1 1Ba-L; experiment: Anti-HIV activity in HIV-infected primary human macrophages (p24 ELISA); type: cell-based; conditions: 70 ug/ml
Excerpt: The nanodrug was further investigated for anti-HIV activity in primary human macrophage and M-cell culture model, respectively. Human peripheral blood mononuclear cells (PBMC) were isolated from healthy donor and differentiated to macrophages as per previously published protocol^23. Briefly, PBMC were isolated with Ficoll-Hypaque (Pharmacia) gradient and cells were allowed to differentiate for 7 days in the presence of human macrophage colony stimulating factor (MCSF, Sigma) to macrophages. Following 7 days of incubation, macrophages were infected with HIV-1 1Ba-L (NIH AIDS research and reference reagent program. Cat#510) (100 ng/ml) and incubated for 24 hrs. The next day, cells were thoroughly washed to get rid of any unattached virus particle and fresh media was added. At the same time, same concentration (70 ug/ml) of nanodrug and unformulated drug (EFV) were added to these cells separately. The HIV infected macrophages were served as control. The nanodrug/EFV drug treated cells were monitored for up to 10 days along with infected control cells. The cell supernatant was collected at day 0, 1, 3, 5, 7 and 10 days post treatment. The viral p24 level in the supernatant was measured with p24 ELISA assay (Cat. #0801200, Zeptometrix, USA). The minimum assay detection limit for p24 antigen by ELISA was 7.8 pg/ml as provided by the manufacturer. […]

[2] = tested on: HIV-1Ba-L; experiment: Anti-HIV activity in in vitro M-cell culture model with HIV-infected Raji cells (p24 ELISA); type: cell-based; conditions: 70 ug/ml; for HIV replication (p24 level in culture supernatant) over time: infected Raji cells
Protocol: The nanodrug was further investigated for anti-HIV activity in primary human macrophage and M-cell culture model, respectively. Simultaneously, a parallel anti-HIV activity study was set up in an in vitro model of M-cell. In this model, Raji cells were exposed with HIV-1Ba-L at the concentration of (100 ng/ml) for 24 hrs in a co-culture and then washed from unattached viral particles^24,25. Following that, same concentration (70 ug/ml) of nanodrug and EFV were added to M-cell culture model separately. […] The untreated Raji cells were kept as a control for all the experiments related to drug activity. In the M-cell culture model, infected Raji cells were also treated with EFV to compare with nanodrug. The effect of nanodrug on HIV replication was measured for up to 10 days post treatment in culture supernatant.

O=C1Nc2ccc(Cl)cc2[C@@](C#CC2CC2)(C(F)(F)F)O1 [EFV, efavirenz]
HIV replication (p24 level in culture supernatant) over time ([1]; day 0-10 post treatment): immediate inhibition of viral replication on day 1 and following that there was increase of viral p24 level | p24 level at end of experiment ([1]; day 10): increased up to the level of untreated cells | p24 level within day 10 ([2]; day 10): increased closer to the level of untreated cells | HIV replication (p24 level in culture supernatant) over time ([2]; up to day 10): immediate reduction of viral replication | HIV replication (p24 level in culture supernatant) over time ([2]; up to day 10, listed as free EFV): immediate decrease in viral replication as expected; however, rebound of viral p24 level within day ten

Reference: patent US9872859B2, “Materials and methods for targeting therapeutic compositions to gut-associated lymphoid tissue (GALT)” (THE FLORIDA INTERNATIONAL UNIVERSITY BOARD OF TRUSTEES, priority 2016, dated 2018)
